For experiment [1], the system named is U373 MG. The experiment is described as follows: Concentration of compound that increased the level of c-jun mRNA expression in U373 glioblastoma cells. It is filed as functional, cell-based. The following applies: Homo sapiens; U-373MG ATCC.
Experiment [2] deals with Tubulin alpha chain (Sus scrofa) (UniProt P02550). Description: Compound was tested for tubulin polymerization in presence of GTP by using cell free tubulin turbidity assay; Active. It is filed as functional.
In experiment [3] the test system is PC-3. Description: Cytotoxic activity (<10 uM) against PC-3 prostate cancer cells using standard in vitro clonogenic assay; No effect. It is filed as functional, cell-based. The following applies: Homo sapiens.
Experiment [4] has as its system NALM-6. Description: Compound (10 uM) was tested for its ability to kill clonogenic NALM-6 cells. It is filed as functional, Homo sapiens.
In experiment [5] the test system is PC-3. Description: Compound (10 uM) was tested for its ability to kill clonogenic PC-3 cells. It is filed as functional, Homo sapiens.
The subject of experiment [6] is PC-3. The experiment is described as follows: Compound (100 uM) was tested for its ability to kill clonogenic PC-3 cells at 100 uM. It is filed as functional, Homo sapiens.
For a further experiment, the species on record is Homo sapiens. The experiment is described as follows: Concentration for inhibition of proliferation of BT-20 by impairing the mitotic spindle assembly; Range 1-10 uM. It is filed as functional.
The test system of experiment [7] is NALM-6. Description: Compound (100 uM) was tested for its ability to kill clonogenic NALM-6 leukemia cells at 100 uM. It is filed as functional, Homo sapiens.
The test system of another experiment is BT-20. Description: Concentration of compound that increased the level of c-jun mRNA expression in BT-20 breast cancer cells. It is filed as functional, cell-based. The following applies: Homo sapiens.
Experiment [8] has as its system NALM-6. Description: Cytotoxic activity (<10 uM) against clonogenic NALM-6 leukemia using standard in vitro clonogenic assay; No effect. It is filed as functional, cell-based. The following applies: Homo sapiens.
Experiment [9] concerns U373 MG. The experiment is described as follows: Concentration for inhibition of proliferation of U373 by impairing the mitotic spindle assembly at a concentration; Range 1-10 uM. It is filed as functional, cell-based. The conditions noted are these: Homo sapiens; U-373MG ATCC.

Calls of active or inactive are those of the source. The calls are words filed in the database; no cut-off is given here.

Sequence of Tubulin alpha chain (Sus scrofa) (P02550 whole entry, looked up): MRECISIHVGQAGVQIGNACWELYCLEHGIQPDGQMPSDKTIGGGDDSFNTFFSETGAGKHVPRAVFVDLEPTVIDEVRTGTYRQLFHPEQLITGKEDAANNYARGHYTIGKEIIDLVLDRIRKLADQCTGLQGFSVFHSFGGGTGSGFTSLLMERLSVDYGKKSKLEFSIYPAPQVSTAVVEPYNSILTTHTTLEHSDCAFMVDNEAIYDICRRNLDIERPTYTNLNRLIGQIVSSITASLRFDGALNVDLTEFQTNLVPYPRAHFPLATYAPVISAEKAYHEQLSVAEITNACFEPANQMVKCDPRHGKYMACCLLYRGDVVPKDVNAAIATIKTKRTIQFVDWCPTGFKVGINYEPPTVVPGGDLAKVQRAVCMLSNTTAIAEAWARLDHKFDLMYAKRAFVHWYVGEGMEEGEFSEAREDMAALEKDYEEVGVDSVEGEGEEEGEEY

For the compound `C=CCC[C@H](O)[C@H]1CC[C@H]([C@H](O)CCCCCCCCCCCC)O1`, the Concentration in the experiment on U373 MG [1] was found to be 250 µM; in the experiment listed under Homo sapiens it was 10 µM; in the experiment on BT-20 it was 250 µM; with U373 MG [9], 10 µM. For the same compound, the inhibition result in experiment [2] was “Active”. Besides, the Concentration result with PC-3 [3] and in the experiment on NALM-6 [8] was “inactive” in each case. For the same compound, the Cell kill was 99% in the experiment with NALM-6 [4], 91% in the experiment with PC-3 [5], >99.9% in the experiment on PC-3 [6] and >99.9% in the experiment with NALM-6 [7].

Source of the values: ChEMBL document CHEMBL1132898, “COBRA-1, a rationally-designed epoxy-THF containing compound with potent tubulin depolymerizing activity as a novel anticancer agent” (2000).
